Molecules are shown by their SMILES. Where only a bound is given, the exact number is not on record here.

What all share (assay): in-line probing
Assay [1] has as its system 108 yjdF RNA (WT, B. subtilis) (RNA, riboswitch) GGUAUAUGGUAAAGAAUGAAAAAACACGAUUCGGUUGGUAGUCCGGAUGCAUGAUUGAGAAUGUCAGUAACCUUCCCCUCCUCGGGAUGUCCAUCAUUCUUUAAUAUCU
The following applies: 100 mM KCl, 20 mM MgCl2, 50 mM Tris-HCl pH 8.3, 25 °C.

In assay [2] the test system is 107 yjdF RNA (B. endophyticus) (RNA, riboswitch) GGUAUAUGAAAUGAAAAAACACAAUUCGGUUGGUAGUCCGGAUGCAUCAUAAUAAAUGAAUGUCAGUAGCCUUCCCCUCCUCGGGAUGUCCAUCAUUUCAUAGUAUUUU
The following applies: 100 mM KCl, 20 mM MgCl2; 50 mM Tris-HCl pH 8.3, 25 °C.

For assay [3], the system named is 108 yjdF M1 (RNA, riboswitch) GGUAUAUGGUAAACUAUGAAAAAACACGAUUCGGUUGGUAGUCCGGAUGCAUGAUUGAGAAUGUCAGUAACCUUCCCCUCCUCGGGAUGUCCAUCAUUCUUUAAUAUCU
Conditions: 100 mM KCl, 20 mM MgCl2; 50 mM Tris-HCl pH 8.3, 25 °C; affinity reduced against WT.

In assay [4] the test system is 108 yjdF M2 (RNA, riboswitch) GGUAUAUGGUAAACUAUGAAAAAACACGAUUCGGUUGGUAGUCCGGAUGCAUGAUUGAGAAUGUCAGUAACCUUCCCCUCCUCGGGAUGUCCAUCAUAGUUUAAUAUCU
Conditions: 100 mM KCl, 20 mM MgCl2; 50 mM Tris-HCl pH 8.3, 25 °C; near WT affinity.

The test system of assay [5] is 108 yjdF M3 (RNA, riboswitch) GGUAUAUGGUAAAGAAUGAAAAAACACGAUUCGGUUGGUCGUCCGGAUGCAUGAUUGAGAAUGUCAGUAACCUUCCCCUCCUCGGGAUGUCCAUCAUUCUUUAAUAUCU
Conditions: 100 mM KCl, 20 mM MgCl2; 50 mM Tris-HCl pH 8.3, 25 °C.

[6] abbreviates: apparent, unit in unseen head of Table S1.
[7] abbreviates: 36-48 h, RNA <5 nM, apparent, 10 µM or poorer.

For the compound `Cc1cc(N)c2ccccc2[n+]1CCCCCCCCCC[n+]1c(C)cc(N)c2ccccc21`, the binding entry in assay [1] (apparent) is listed as “yes”.

Take `C[C@H](CCC(=O)O)[C@H]1CC[C@H]2[C@@H]3CC[C@@H]4C[C@H](O)CC[C@]4(C)[C@H]3C[C@H](O)[C@]12C`: in assay [1] (setting [6]), the KD is listed as greater than 100.

As to `CC(=O)Oc1ccccc1C(=O)O`, the KD in assay [1] (setting [7]) was greater than 10000 nM.

Turning to `Cc1nccc2c1[nH]c1ccccc12`, the binding entry in assay [1] (apparent) is recorded as “yes”.

Turning to `COc1ccc2c(c[n+](C)c3c4cc5c(cc4ccc23)OCO5)c1OC`, the KD in assay [1] (36-48 h, RNA <5 nM, apparent) is 2.5 nM. For the same compound, the binding result in assay [2] was “yes”.

In the case of `C[n+]1cc2c3c(ccc2c2ccc4cc5c(cc4c21)OCO5)OCO3`, in assay [1] (36-48 h, RNA <5 nM, apparent), the KD amounted to 4.2 nM.

In the case of `CCn1cc(C(=O)O)c(=O)c2ccc(C)nc21`, the KD in assay [1] (36-48 h, RNA <5 nM, apparent) was ~ 1 µM.

Regarding `O=C(O)/C=C/c1ccccc1`, in assay [1] (setting [7]), the KD is greater than 10000 nM.

With `C[C@H](CCC(=O)NCCS(=O)(=O)O)[C@H]1CC[C@H]2[C@@H]3CC[C@@H]4C[C@H](O)CC[C@]4(C)[C@H]3C[C@H](O)[C@]12C`, the KD in assay [1] (setting [6]) is listed as greater than 100.

As for `Cc1cc2nc3c(=O)[nH]c(=O)nc-3n(C)c2cc1C`, the KD in assay [1] (36-48 h, RNA <5 nM, apparent) worked out at 800 nM.

For the compound `O=C(O)/C=C/c1ccc(O)c(O)c1`, the KD in assay [1] (setting [7]) is greater than 10000 nM.

On to `Nc1ccc2cc3ccc(N)cc3nc2c1`, for which the KD in assay [1] (36-48 h, RNA <5 nM, apparent) is on record as 6.1 nM. The binding entry in assay [3] is given as “weak”; in assay [4], “yes”; in assay [5], “no”.

Regarding `C[C@H](CCC(=O)O)[C@H]1CC[C@H]2[C@@H]3[C@H](O)C[C@@H]4C[C@H](O)CC[C@]4(C)[C@H]3CC[C@]12C`, the KD in assay [1] (setting [6]) was greater than 100.

Turning to `Cc1cc2nc3c(=O)[nH]c(=O)nc-3n(C[C@H](O)[C@H](O)[C@H](O)CO)c2cc1C`, the binding result is “yes” in assay [1] (riboflavin 0-10 µM, weaker than proflavine) and “no” in assay [5].

For the origin of these results see PMC4793209 (2016).
